Measured values from paper PMC5321741, “Arylmethylamino steroids as antiparasitic agents” (Nature Communications, 2017).
Read-outs that look alike come from different tables or passages of the source.

Key:
[1] = cytotoxicity on HeLa cells; format: cell-based; settings: human, HeLa cells
Protocol: (§1) Compounds were tested for their antiproliferative activity on HUVEC and K-562 cells and for cytotoxicity on HeLa cells using standard protocols. K-562 (DSM ACC 10), HUVEC (ATCC CRL-1730), and HeLa (DSM ACC 57) cells were cultured as described previously. To assay the antiproliferative and cytotoxic effect, procedures were carried out as described before. In brief, for each experiment with K-562 and HeLa ∼10,000 cells were seeded per well of the 96-well microplates. For the cytotoxicity assay, the HeLa cells were preincubated for 48 h without the test substances. Cells were incubated for 72 h at 37 °C in a humidified atmosphere and 5% CO2. Suspension cultures of K-562 in microplates were analysed by an electronic cell analyzer system CASY 1 (SCHÄRFE, Reutlingen, Germany). The monolayer of the HUVEC and HeLa cells were fixed by glutaraldehyde (MERCK) and stained with a 0.05% solution of methylene blue (SERVA). After gently washing, the stain was eluted by 0.2 ml of 0.33 N HCl in the wells. The optical densities were measured at 660 nm in a microplate reader. The calculations of the different values of GI50 and CC50 were performed with the software Magellan (TECAN).

[2] = system: P. falciparum (strain 3D7); assay: 72 h 3H-hypoxanthine incorporation assay, asexual blood stages; format: cell-based, Plasmodium falciparum; settings: Plasmodium falciparum
HUVEC = assay: antiproliferative activity on HUVEC cells; format: cell-based; settings: Homo sapiens, HUVEC, 72 h
Protocol: as §1

K-562 = assay: antiproliferative activity on K-562 cells; format: cell-based; settings: Homo sapiens, K562, 72 h
Protocol: as §1

haem = assay: ESI-MS collision-induced dissociation of haem adducts; format: binding; settings: 50 µM haem and 50 µM substrate; for DV50 (dissociation voltage at 50%) of haem adduct: ESI-CID, 20 V to 400 V; for Bottom plateau (adduct remaining at 400 V): fragmentor voltage 400 V
Protocol: Compound Molar Adduct DV50 Bottom Dissociation mass [Haem+S] (V) plateau Constant
Supplementary Table 7. ESI-MS-CID data (m/z, calculated DV50 = dissociation voltage at 50% and % bottom plateau) of the [haematin-drug]+ adducts and dissociation constants (KD, µM) of the haematin-drug complexes measured with absorption spectrophotometric titrations.
Conditions: 50 µM haem and 50 µM substrate in H2O/CH3CN (5/95) + 0.1% formic acid.
Stability responses of the haem substrate adduct were obtained via ESI-CID experiments.
Positive mode; fragmentor voltage from 20 V to 400 V with 20 V increments. […]
- 41/120 g), and complete dissolution was achieved using an ultrasonic bath. All solutions were protected from daylight to avoid any photochemical degradation. All the physiochemical measurements were carried out at 25.0(2) °C. […]
Electrospray mass spectrometric measurements stopping point
Electrospray mass spectra of the haem complexes were obtained with an Agilent Technologies 6120 quadrupole equipped with an electrospray (ESI) interface. For

[3] = system: P. berghei GFP ANKA malaria strain; assay: P. berghei mouse model (Peter's test); format: in vivo, Plasmodium berghei in NMRI mice; settings: for % activity (reduction of parasitaemia): day 4
Protocol: The animal experiments described here were performed at the Swiss Tropical and Public Health Institute (Swiss TPH, Basel, Switzerland), they were approved by the Swiss Cantonal Authorities (‘Kantonales Veterinäramt Basel Stadt') adhering to local and national regulations of laboratory animal welfare in Switzerland. The best compounds were tested in the murine P. berghei model essentially as described. The infection was initiated at day 0 with the P. berghei GFP ANKA malaria strain (donation from AP Waters and CJ Janse, Leiden University). From donor mice (female NMRI mice, 18–20 grams (about 3 weeks) from Charles River Germany) with ∼30% parasitaemia, heparinized blood was taken and diluted in physiological saline to 10^8 parasitized erythrocytes/ml. An aliquot (0.2 ml) of this suspension was injected intravenously into experimental and control groups of mice (female NMRI mice, 18–20 grams (about 3 weeks) from Charles River Germany). Usually, in untreated control mice parasitaemia rose regularly to ∼30% by day 3 post-infection. Control mice died between days 6 and 7 post infection. In the experiments described here, however, control animals (n=5) were killed on day 4 post infection for ethical reasons.
The steroid compounds were prepared at an appropriate concentration as a solution/suspension in Tween 80/alcohol (7:3, Tween 80 and absolute ethanol, respectively), followed by a 10x dilution in water. […] The route of administration was i.p., p.o., s.c. in a volume of 10 ml kg^−1.
The degree of infection (parasitaemia expressed in % of infected erythrocytes) was determined by FACS analysis on day 4 (96 h post infection). The difference of the mean infection rate of the control group (=100%) to the test group was calculated and expressed as a percent reduction. For example, activity determination with a mean of 2% parasitaemia in treated mice and a mean of 40% parasitaemia in the control animals is calculated as follows: (40−2%)/40% × 100=95% activity. The survival time in days was recorded up to 30 days after infection. A compound was considered curative if the animal survived to day 30 after infection with no detectable parasites (confirmed by light microscopy).

[4] = 3D7, 72 h 3H-hypoxanthine incorporation, asexual blood stages, read-out: Antiplasmodial activity IC50 Pf (3D7)
[5] = 3D7, non-steroid-derived analogs, read-out: IC50 on P. falciparum 3D7 asexual blood stages

Compound	CC50 at 72 h [1] [nM]	IC50 [2, 4] [nM]	GI50 (HUVEC) [nM]	GI50 (K-562) [nM]	further results
COc1ccc2c(c1)CCC1C2CC[C@@]2(C)C1C[C@@H](NCc1ccccc1O)[C@@H]2O (stereo partly drawn) [7c]	10100	120	1200	2000	
COc1ccc2c(c1)CCC1C2CC[C@@]2(C)C1CC[C@H]2NCc1cc(Cl)ccc1O (stereo partly drawn) [1s]		11			
Oc1ccccc1CNC1CCCCC1 [16c]					IC50 [2, 5]: > 6000 nM
COc1ccc2c(c1)CCC1C2CC[C@@]2(C)C1CC[C@@H]2/N=C/c1cc2ccccc2cc1O (stereo partly drawn) [2n]		5540			
COc1ccc2c(c1)CCC1C2CC[C@]2(C)C1CC(NCc1ccccc1O)[C@@H]2O (stereo partly drawn) [9c]	48800	999	11200	8400	
COc1ccc2c(c1)CCC1C2CCC2(C)C(NCc3ccccc3OC)CCC12 (stereo not drawn) [1i]		872			
CCN(CC)c1ccc(/C=N/[C@H]2CCC3C4CCc5cc(OC)ccc5C4CC[C@@]32C)c(O)c1 (stereo partly drawn) [2p]		> 5000			
COc1ccc2c(c1)CCC1C2CC[C@@]2(C)C1CC[C@@H]2N (stereo partly drawn) [2a]		> 1000			DV50 (dissociation voltage at 50%) of haem adduct (haem): 210 V; Bottom plateau (adduct remaining at 400 V) (haem): 1.8%
COc1ccc2c(c1)CCC1C2CC[C@@]2(C)C1CC[C@@H]2NCc1c(O)ccc2ccccc12 (stereo partly drawn) [2m]		183			
Oc1cc2ccccc2cc1CNc1ccc2ccc3cccc4ccc1c2c34 [20o]		> 13000			
CC(C)CCC[C@@H](C)[C@H]1CCC2C3CCC4C[C@@H](O)[C@@H](O)[C@H](NCc5ccccc5O)[C@]4(C)C3CC[C@@]21C (stereo partly drawn) [12c]	38000	4360	12400	16500	
COc1ccc2c(c1)CCC1C2CCC2(C)C(NCc3cccc(O)c3)CCC12 (stereo not drawn) [1e]		434			
COc1ccc2c(c1)CCC1C2CC[C@@]2(C)C1C[C@@H](NCc1ccccc1O)[C@H]2O (stereo partly drawn) [5c]	11300	160	2200	2000	
Oc1ccccc1CNC1CCCCCCC1 [17c]		2000			IC50 [2, 5]: ~2000 nM
COc1ccc2c(c1)CCC1C2CC[C@@]2(C)C1CC[C@@H]2N(CCCn1ccnc1)CCc1ccccn1 (stereo partly drawn) [STS 948]	18300	675	7200	6600	DV50 (dissociation voltage at 50%) of haem adduct (haem): 367 V; Bottom plateau (adduct remaining at 400 V) (haem): 36%
COc1ccc2c(c1)CCC1C2CC[C@]2(C)C[C@@H](NCc3ccccc3O)CC12 (stereo partly drawn) [4c]	12000	63	3100	2600	
COc1ccc2c(c1)CCC1C2CCC2(C)C(NCc3ccc(O)cc3)CCC12 (stereo not drawn) [1g]		116			
COc1ccc2c(c1)CCC1C2CC[C@@]2(C)C1C[C@H](NCc1ccccc1O)[C@@H]2O (stereo partly drawn) [8c]	5900	224	2500	500	
Oc1ccccc1CNC12CC3CC(CC(C3)C1)C2 [18c]					IC50 [2, 5]: 4000 nM
COc1ccc2c(c1)CCC1C2CC[C@@]2(C)C1CC[C@@H]2/N=C/c1ccccc1O (stereo partly drawn) [2b]		> 2500			
COc1ccc2c(c1)CCC1C2CC[C@@]2(C)C1CC[C@H]2/N=C/c1ccccc1O (stereo partly drawn) [1b]		> 2500			
COc1ccc2c(c1)CCC1C2CC[C@@]2(C)C1CC[C@@H]2NCc1ccccc1O (stereo partly drawn) [2c]	42900	73	10000	5100	Mouse survival in days, Average ([3]; 3x 10 mg/kg s.c.): 10 days; % activity (reduction of parasitaemia) ([3]; 3x 10 mg/kg s.c.): 47%; Mouse survival in days, Average ([3]; 3x 30 mg/kg s.c.): 14 days; % activity (reduction of parasitaemia) ([3]; 3x 30 mg/kg s.c.): 87%; Mouse survival in days, Average ([3]; 3x 100 mg/kg p.o.): 16 days; % activity (reduction of parasitaemia) ([3]; 3x 100 mg/kg p.o.): 99%
